Measurements: patent publication US9708336B2, “Metallo-beta-lactamase inhibitors” (priority 2014, dated 2017)
pIC50: −log10 of the molar value. Like-named read-outs stand apart in the source and are kept apart here.

Columns and labels:
NDM-1 = NDM-1 (Klebsiella pneumoniae, UniProt C7C422); assay: biochemical; assay type: biochemical; settings: read-out: NDM-1 IC50
IMP-1 = IMP-1 (Serratia marcescens, UniProt P52699); assay: biochemical; assay type: biochemical; settings: read-out: IMP-1 IC50
Method: Enzyme Activity: Determination of IC50
The Class B enzyme activities were measured in the presence of the test inhibitor in a fluorescence assay against a commercially available substrate consisting of a cephalosporin core linking 7-hydroxycoumarin to fluorescein (CCF2-FA). The enzyme (NDM-1, IMP-1 or VIM-1) and the substrate were diluted in 100 mM KH2PO4 buffer (pH 7) containing 0.005% Tween-20 and 10 μM ZnSO4. […] The test inhibitor was dissolved in dimethylsulfoxide and diluted 1:50 in the assay, resulting in a final concentration range of 20 uM to 0.00063 uM. In a 384-well microplate, the test inhibitor was incubated with the metallo-β-lactamase enzyme and the substrate for 2 hours at 25° C. Fluorescence at 460 nm following excitation at 405 nm was measured. The IC50 value was determined from semi-logarithmic plots of enzyme inhibition versus inhibitor concentration, with a curve generated using a 4-parameter fit.

[1] = system: Klebsiella pneumoniae expressing VIM-1 (IHMA599644); assay: Antibiotic potentiation activity: synergistic concentration (MITC95) with imipenem, OD600 growth; assay type: cell-based; settings: for Klebsiella pneumoniae expressing VIM-1 (IHMA 599644) MITC95: concentration giving 95% inhibition of bacterial growth
In short: (§1)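 In 1.1× CAMHB, clinical isolates from overnight plates were challenged with test compound alongside imipenem at an assay concentration of 4 μg/ml, sometimes 1 μg/ml. Plates sat covered at 35 °C for 22–24 h prior to spectrophotometric reading.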

[2] = system: Serratia marcescens expressing IMP-1 (CL5741); assay: as above; assay type: cell-based; settings: for Serratia marcescens expressing IMP-1 (CL5741) MITC95: concentration giving 95% inhibition of bacterial growth
In short: as §1

[3] = system: Escherichia coli expressing NDM-1 (CLB30016); assay: as above; assay type: cell-based; settings: for Escherichia coli expressing NDM-1 (CLB 30016) MITC95: concentration giving 95% inhibition of bacterial growth
In short: as §1

VIM-1 = VIM-1 (Pseudomonas aeruginosa (strain ATCC 15692 / DSM 22644 / CIP 104116 / JCM 14847 / LMG 12228 / 1C / PRS 101 / PAO1), UniProt A0A0F7KYQ8); assay: Enzyme activity: determination of IC50, fluorescence assay with CCF2-FA substrate (VIM-1); assay type: biochemical
[4] = NDM-1 enzyme, CCF2-FA fluorescence assay
[5] = IMP-1 enzyme, CCF2-FA fluorescence assay
[6] = Klebsiella pneumoniae expressing VIM-1 (IHMA599644), 95% growth inhibition
[7] = Serratia marcescens expressing IMP-1 (CL5741), 95% growth inhibition
[8] = Escherichia coli expressing NDM-1 (CLB30016), 95% growth inhibition
[9] = VIM-1 enzyme, CCF2-FA fluorescence assay, read-out: VIM-1 IC50
[10] = fluorescence assay with CCF2-FA substrate
[11] = fluorescence assay with CCF2-FA substrate, read-out: VIM-1 IC50
[12] = NDM-1 enzyme, CCF2-FA substrate
[13] = IMP-1 enzyme, CCF2-FA substrate
[14] = Klebsiella pneumoniae IHMA599644 (VIM-1), 95% growth inhibition
[15] = Serratia marcescens CL5741 (IMP-1), 95% growth inhibition
[16] = (CLB30016, NDM-1), 95% growth inhibition
[17] = VIM-1 IC50, VIM-1 enzyme, CCF2-FA substrate
[18] = IHMA599644 (VIM-1), 95% inhibition of bacterial growth
[19] = CL5741 (IMP-1), 95% inhibition of bacterial growth
[20] = CLB30016 (NDM-1), 95% inhibition of bacterial growth

Sequence of NDM-1 (C7C422 whole entry, looked up, species assumed): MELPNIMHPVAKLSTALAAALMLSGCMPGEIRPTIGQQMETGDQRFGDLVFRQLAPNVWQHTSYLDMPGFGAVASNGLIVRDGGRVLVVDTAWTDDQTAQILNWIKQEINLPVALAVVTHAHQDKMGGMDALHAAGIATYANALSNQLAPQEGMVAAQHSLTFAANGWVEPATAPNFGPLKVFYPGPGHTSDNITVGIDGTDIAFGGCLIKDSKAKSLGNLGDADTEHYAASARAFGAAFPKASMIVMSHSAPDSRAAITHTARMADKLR
Sequence of IMP-1 (P52699 whole entry, looked up): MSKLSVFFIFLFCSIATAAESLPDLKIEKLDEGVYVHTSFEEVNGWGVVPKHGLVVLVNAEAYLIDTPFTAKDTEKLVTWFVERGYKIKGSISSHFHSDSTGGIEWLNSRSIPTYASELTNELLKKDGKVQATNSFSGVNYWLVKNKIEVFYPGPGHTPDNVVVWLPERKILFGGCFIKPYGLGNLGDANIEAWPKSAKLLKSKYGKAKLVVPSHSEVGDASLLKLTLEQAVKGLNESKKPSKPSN

Row | SMILES | pIC50 (NDM-1; [4]) | pIC50 (IMP-1; [5]) | Klebsiella pneumoniae MITC95 [1, 6] [µM] | Serratia marcescens MITC95 [2, 7] [µM] | Escherichia coli MITC95 [3, 8] [µM] | pIC50 (VIM-1; [9]) | pIC50 (NDM-1; [10]) | pIC50 (IMP-1; [10]) | further results
1 | NS(=O)(=O)c1c(C(F)(F)F)ccc(C2CCCC2)c1-c1nnn[nH]1 [Example 490, 3-cyclopentyl-2-(1H-tetrazol-5-yl)-6-(trifluoromethyl)benzenesulfonamide] | 8.59 | 8.25 | 9.375 | 0.375 | 1.281 | 8.63 | – | – | –
2 | Nc1nccc2ccc(-c3cccc(S(N)(=O)=O)c3-c3nnn[nH]3)cc12 [Example 400, 3-(1-aminoisoquinolin-7-yl)-2-(1H-tetrazol-5-yl)benzenesulfonamide] | 8.79 | 6.78 | 6.25 | 12.5 | 0.25 | – | – | – | pIC50 (VIM-1; VIM-1 IC50, VIM-1 enzyme, CCF2-FA fluorescence assay): 7.73
3 | NS(=O)(=O)c1nccc(N2CCC(N3CCOCC3)CC2)c1-c1nnn[nH]1 [Example 239, 4-(4-morpholin-4-ylpiperidin-1-yl)-3-(1H-tetrazol-5-yl)pyridine-2-sulfonamide] | – | – | – | – | – | – | 6.42 | 5.43 | Klebsiella pneumoniae expressing VIM-1 (IHMA 599644) MITC95 [1]: 50 µM; Serratia marcescens expressing IMP-1 (CL5741) MITC95 [2]: 50 µM; Escherichia coli expressing NDM-1 (CLB 30016) MITC95 [3]: 1.563 µM; pIC50 (VIM-1; [11]): 6.02
4 | NS(=O)(=O)c1c(C(F)(F)F)ccc([C@H]2CC[C@H](NCC3CCCN3)CC2)c1-c1nnn[nH]1 (stereo partly drawn) [Example 681, 3-{4-[(pyrrolidin-2-ylmethyl)amino]cyclohex-yl}-2-(1H-tetrazol-5-yl)-6-(trifluoromethyl)benzene sulfonamide] | – | – | – | – | – | – | – | – | pIC50 (NDM-1; [12]): 8.06; pIC50 (IMP-1; [13]): 7.79; Klebsiella pneumoniae MITC95 [1, 14]: 6.25 µM; Serratia marcescens MITC95 [2, 15]: 3.125 µM; Escherichia coli MITC95 [3, 16]: 1.563 µM; pIC50 (VIM-1; [17]): 8.15
5 | NS(=O)(=O)c1c(C(F)(F)F)ccc(-c2ccnc3ccccc23)c1-c1nn[nH]n1 [Example 273, 3-(quinolin-4-yl)-2-(2H-tetrazol-5-yl)-6-(trifluoromethyl)benzenesulfonamide] | 9.24 | 8.49 | 6.25 | 0.3906 | 4.688 | 9.78 | – | – | –
6 | NS(=O)(=O)c1cccc(-c2ccc(CNCCc3cn[nH]c3)cc2)c1-c1nnn[nH]1 [Example 385, 4′-({[2-(1H-pyrazol-4-yl)ethyl]amino}methyl)-2-(1H-tetrazol-5-yl)biphenyl-3-sulfonamide] | 7.90 | 6.30 | 50 | 6.25 | 1.563 | 6.45 | – | – | –
7 | NS(=O)(=O)c1c(C(F)(F)F)ccc(-c2ccc(C3CCN(C[C@@H]4CNCCO4)CC3)cc2)c1-c1nnn[nH]1 [Example 678, 4′-{1-[(2S)-morpholin-2-ylmethyl]piperidin-4-yl}-2-(1H-tetrazol-5-yl)-4-(trifluoromethyl)biphenyl-3-sulfonamide] | – | – | – | – | – | – | – | – | pIC50 (NDM-1; [12]): 7.82; pIC50 (IMP-1; [13]): 8.30; Klebsiella pneumoniae MITC95 [1, 14]: 150 µM; Serratia marcescens MITC95 [2, 15]: 6.25 µM; Escherichia coli MITC95 [3, 16]: 9.375 µM; pIC50 (VIM-1; VIM-1 enzyme, CCF2-FA substrate, read-out: VIM-1 IC50): 7.68
8 | CNC(=O)CNCc1ccc(-c2cccc(S(N)(=O)=O)c2-c2nnn[nH]2)cc1 [Example 371, N-methyl-N~2~-{[3′-sulfamoyl-2′-(1H-tetrazol-5-yl)biphenyl-4-yl]methyl}glycinamide] | 8.07 | 7.11 | 100 | 2.344 | 0.7813 | 6.43 | – | – | –
9 | NS(=O)(=O)c1c(C(F)(F)F)ccc(-c2cnc3ncccn23)c1-c1nnn[nH]1 [Example 712, 3-imidazo[1,2-a]pyrimidin-3-yl-2-(1H-tetrazol-5-yl)-6-(trifluoromethyl)benzenesulfon-amide] | – | – | – | – | – | – | – | – | pIC50 (NDM-1; [12]): 7.23; pIC50 (IMP-1; [13]): 6.90; Klebsiella pneumoniae MITC95 [1, 14]: 50 µM; Serratia marcescens MITC95 [2, 15]: 100 µM; Escherichia coli MITC95 [3, 16]: 25 µM; pIC50 (VIM-1; [17]): 7.87
10 | NCCCCN1CC(c2ccc(-c3ccc(C(F)(F)F)c(S(N)(=O)=O)c3-c3nnn[nH]3)cc2)C1 [Example 817, 4′-[1-(4-aminobutyl)azetidin-3-yl]-2-(1H-tetrazol-5-yl)-4-(trifluoromethyl)biphenyl-3-sulfonamide] | – | – | – | – | – | – | 8.35 | 7.82 | Klebsiella pneumoniae MITC95 [1, 18]: 12.5 µM; Serratia marcescens MITC95 [2, 19]: 6.25 µM; Escherichia coli MITC95 [3, 20]: 1.563 µM; pIC50 (VIM-1; [11]): 8.02
11 | NS(=O)(=O)c1cccc(C2CCCC2)c1-c1nnn[nH]1 [Example 160, 3-cyclopentyl-2-(1H-tetrazol-5-yl)benzenesulfonamide] | – | – | – | – | – | – | 8.05 | 6.60 | Klebsiella pneumoniae expressing VIM-1 (IHMA 599644) MITC95 [1]: 75 µM; Serratia marcescens expressing IMP-1 (CL5741) MITC95 [2]: 9.375 µM; Escherichia coli expressing NDM-1 (CLB 30016) MITC95 [3]: 0.7813 µM; pIC50 (VIM-1; [11]): 6.55
12 | NCCC1CCC(N2CCC(c3ccc(-c4ccc(C(F)(F)F)c(S(N)(=O)=O)c4-c4nnn[nH]4)cc3)CC2)CC1 (stereo not drawn) [Example 792, 4′-{1-[4-(2-aminoethyl)cyclohexyl]piperidin-4-yl}-2-(1H-tetrazol-5-yl)-4-(trifluoromethyl)biphenyl-3-sulfonamide] | – | – | – | – | – | – | 8.14 | 8.81 | Klebsiella pneumoniae MITC95 [1, 18]: 25 µM; Serratia marcescens MITC95 [2, 19]: 3.125 µM; Escherichia coli MITC95 [3, 20]: 3.125 µM; pIC50 (VIM-1; [11]): 8.36
13 | NS(=O)(=O)c1cccc(CCc2ccccc2)c1-c1nnn[nH]1 [Example 154, 3-phenethyl-2-(1H-tetrazol-5-yl)benzenesulfonamide] | – | – | – | – | – | – | 8.48 | 7.97 | Klebsiella pneumoniae expressing VIM-1 (IHMA 599644) MITC95 [1]: 100 µM; Serratia marcescens expressing IMP-1 (CL5741) MITC95 [2]: 0.3906 µM; Escherichia coli expressing NDM-1 (CLB 30016) MITC95 [3]: 2.344 µM; pIC50 (VIM-1; VIM-1 IC50, fluorescence assay with CCF2-FA substrate): 7.09
14 | CNCc1ccc(-c2cccc(S(N)(=O)=O)c2-c2nnn[nH]2)cc1 [Example 334, 4′-((methylamino)methyl)-2-(1H-tetrazol-5-yl)-[1,1′-biphenyl]-3-sulfonamide] | 7.98 | 6.41 | 9.375 | 3.125 | 0.3906 | 6.89 | – | – | –
15 | Cc1ccc(-c2ccc(C(F)(F)F)c(S(N)(=O)=O)c2-c2nn[nH]n2)cc1 [Example 268, 4′-methyl-2-(2H-tetrazol-5-yl)-4-(trifluoromethyl)-[1,1′-biphenyl]-3-sulfonamide] | 8.70 | 8.79 | 9.375 | 0.25 | 2.229 | 9.05 | – | – | –
16 | Nc1ccnc2cc(-c3ccc(C(F)(F)F)c(S(N)(=O)=O)c3-c3nnn[nH]3)ccc12 [Example 478, 3-(4-amino-7-quinolyl)-2-(1-tetrazol-5-yl)-6-(trifluoromethyl)benzenesulfonamide] | 7.61 | 7.06 | 0.7813 | 2.344 | 0.7813 | 9.19 | – | – | –
